Test results published in ChEMBL document CHEMBL6109151, “Discovery of a Novel Dihydroisoquinolinone Derivative as a Potent CDK9 Inhibitor Capable of Overcoming L156F Mutant for the Treatment of Hematologic Malignancies” (J Med Chem, 2025).

What was measured:
Conditions in all cases: male, Sprague-Dawley, rat, iv, 1 mg/kg
in vivo [1] = experiment: in vivo
in vivo [2] = experiment: in vivo; remark: listed apart in the source
in vivo [3] = experiment: in vivo; remark: listed apart in the source
in vivo [4] = experiment: in vivo; remark: listed apart in the source

**Q.** Which AUC(0-t) at 8 h (in vivo [1]) does the source give for `COc1cc(F)ccc1-c1cc(Nc2cc(CS(C)(=N)=O)ccn2)ncc1F` (centres undefined) [ENITOCICLIB] here?
**A.** 1190 ng·h/mL

**Q.** What about the Vd at 8 h (in vivo [2]) of the same compound?
**A.** 1.11 L/kg

**Q.** And the clearance at 8 h (in vivo [3])?
**A.** 14 mL/min/kg

**Q.** What about the half-life at 8 h (in vivo [4]) of the same compound?
**A.** 1.1 h
